Measured values: patent US10844102B2, “Peptides, compositions, and methods for stimulating subcutaneous adipogenesis” (The Regents of the University of California, priority 2014, dated 2020)
Entries after “also recorded” stand apart in the source; their conditions may differ.

Columns and labels:
[1] = test system: adipogenesis; test: Adipogenic activity of peptides and peptide fragments, assay not specified; type: cell-based; conditions: assay not specified
Method: In the second approach, a series of truncations and alanine mutagenesis on peptide B were performed in order to identify the smallest active sequence. Fragments of peptide B were prepared and assayed for adipogenesis. First, fragments corresponding to the two halves of peptide B were prepared (KLKDENS (SEQ ID NO: 8) and SQLKSEVSK (SEQ ID NO: 13)).

[2] = test system: rat mesenchymal stem cells; test: Assay 2: adipogenesis, Oil Red O staining (differentiation of pre-adipocytes into adipocytes); type: cell-based; conditions: for adipogenesis quantified by Oil Red O staining, fold change relative to the negative control: Assay 2, three weeks; for adipogenic activity in Assay 2: Assay 2, Oil Red O, concentration not given
Method: Reagents: The Dexamethasone, IBMX, Insulin, and Oil Red O Solutions were the same as described above for assay 1. Indomethacin Solution contained 10 mM indomethacin in methanol.
Adipogenesis Maintenance Media was prepared as described above.
Adipogenesis Induction Media: To prepare 501.5 mL of Adipogenesis Induction Media, 50 μL of the 10 mM stock Dexamethasone Solution, 500 μL of the 0.5 M IBMX stock solution, 500 μL of the 10 mg/ml stock Insulin Solution, 5 ml of a 10 mM stock Indomethacin Solution, and 5 mL of a 100× stock solution of penicillin and streptomycin were added to 490 mL of mesenchymal stem cell expansion media.
Pre-adipocyte stem cells, bone marrow mesenchymal stem cells or fibroblasts such as dermal reticular and papillary fibroblasts were propagated using standard tissue culture methods. Cells were trypsinized to remove cells from the substratum, the trypsin was neutralized, and cells were counted using a hemocytometer. Cells were resuspended at 20,000 cells/ml in DMEM containing 10% calf serum. 1 mL of cell suspension per well was plated in a 48-well plate, with several wells left empty for blank well (blank control) staining.
Cells were incubated for 2 days overnight and had reached confluency at this point. Media was removed from each well and replaced with 0.5 ml Adipogenesis Induction Media. For negative control (no insulin, no peptide) wells, expansion medium only was used at this step and for subsequent media changes. For all media changes, media was replaced as gently as possible to avoid disturbing the monolayer.
Cells were incubated for 72 hours at 37° C., 5% CO2. Media was removed and replaced with 0.5 ml of Adipogenesis Maintenance Media containing either RHAMM antagonist peptides (experimental group) or insulin (concentration as in the Adipogenesis Induction Media and used as a positive control). Cells were incubated for at least 96 hours in this media at 37° C., 5% CO2. Media was replaced every 48 hours and experiments were terminated between seven and fourteen days after addition of insulin or peptides.
Media was removed and Oil Red O staining was performed as described above for assay 1.
Assay 1 is an assay that promotes transdifferentiation of fibroblasts into adipocytes, whereas Assay 2 promotes differentiation of multi-potential mesenchymal progenitor cells into adipocytes. Immortalized rat bone marrow mesenchymal stem cells were used for both assays. These cells contain cells of different lineages, including fibroblasts, pre-adipocytes, pre-chondrocytes and pre-osteoblasts. Thus, Assay 1 was used to promote transdifferentiation of fibroblast lineages into adipocytes and Assay 2 was used to promote differentiation of the pre-adipocytes into adipocytes.
As described in Example 1 above, the priming stimulus for Assay 1 includes IBMX (3-isobutyl-1-methylxanthine) and dexamethasone, and then insulin as the final adipogenic stimulus. The priming stimulus for assay 2 includes IBMX, dexamethasone and indomethacin, and then insulin as the final adipogenic stimulus.
Adipogenesis was quantified by Oil Red O staining. The peptide was tested at concentrations of 5 and 50 μg/ml over a period of three weeks. Cells were plated in 48-well culture plates, and the purity of the peptides was >95%. All data are presented as the fold change relative to the negative control (Ctr(−))±standard error. The KSEVSK 6-mer (SEQ ID NO: 7) was used as a positive control.

[3] = test system: rat mesenchymal stem cells; test: Assay 1: adipogenesis, Oil Red O staining (transdifferentiation of fibroblast lineages into adipocytes); type: cell-based; conditions: for adipogenesis quantified by Oil Red O staining, fold change relative to the negative control: Assay 1, three weeks
Method: Reagents: (1) 3-isobutyl-1-methylxanthine (IBMX) solution: 0.5M in DMSO; (2) Insulin Solution: 10 mg/mL recombinant human insulin; (3) Dexamethasone Solution in 10 mM in ethanol; (4) Oil Red O (0.36% in 60% isopropanol).
Adipogenesis Initiation Media: mesenchymal stem cell expansion media/0.5 mM IBMX/1 μM dexamethasone. Mesenchymal stem cell expansion media is commercially available from Millipore. The IBMX Solution was diluted 1:1000 and the Dexamethasone Solution was diluted 1:10,000 in expansion media containing antibiotics and antimycotics. The prepared media was stored at 4° C.
Adipogenesis Progression Media for positive control: mesenchymal stem cell expansion media/10 μg/mL insulin. The Insulin Solution was diluted 1:1000 in the expansion media and stored at 4° C.
Experimental Adipogenesis Progression Media: mesenchymal stem cell expansion media/1-100 μg/mL RHAMM antagonist peptides.
Adipogenesis Maintenance Media: mesenchymal stem cell expansion media containing antibiotics and antimycotics.
Negative Control Media: Dulbecco's Modified Eagle's Medium (DMEM)/10% normal calf serum.
Pre-adipocyte stem cells including bone marrow mesenchymal stem cells and fibroblasts were propagated using standard tissue culture methods. Cells were trypsinized to remove the cells from the substratum. The trypsin was neutralized and cells were counted using a hemocytometer. Cells were resuspended at 20,000 cells/mL in expansion media. 1 mL of cell suspension was plated per well of 48-well plate, with several wells left empty for blank well (blank control) staining.
Cells were incubated until they reached confluency. When cells were fully confluent, the expansion media was replaced with 0.5 mL of Adipogenesis Initiation Media. For negative controls (no insulin, no peptides), expansion media only was used at this step and for subsequent media changes. For all media changes, media was replaced as gently as possible to avoid disturbing the monolayer.
Cells were incubated in Adipogenesis Initiation Media for 72 hours at 37° C., 5% CO2. 0.5 mL media was then removed from each well, and replaced with 0.5 mL of either positive control or experimental Adipogenesis Progression Media per well. Cells were again incubated for 96 hours at 37° C., 5% CO2, after which time media was replaced every 48 hours with Adipogenesis Maintenance Media (0.5 mL of media was removed from each well and replaced with 0.5 mL Adipogenesis Maintenance Media per well). Media added to empty wells served as blank controls for blank well background staining. Cells were incubated in Adipogenesis Maintenance Medium for at least 96 hours at 37° C., 5% CO2 after which time media was replaced with Adipogenesis Maintenance Medium. Lipid droplets had appeared by the time Adipogenesis Maintenance Medium was initially added and continued to accumulate and increase in size for 7-14 days. Experiments were terminated between seven and fourteen days after the initial addition of Adipogenesis Maintenance Medium.
For quantification of Oil Red O staining, media was removed and cells were washed twice with PBS, using care to gently add the PBS. Cells were then fixed in 4% paraformaldehyde (0.5 mL/well) and incubated for 30 minutes. The fixation solution was then removed and wells were washed two times with 1 mL of phosphate buffered saline (PBS) and once with 1 mL Milli-Q water. 0.25 mL Oil Red O solution was added per well of 48-well plate, including to the wells lacking cells, but containing media. Cells were incubated for 15 minutes at room temperature. The staining solution was then removed and wells were washed two times with 1 mL of Milli-Q water and once with washing solution (63% isopropanol in water).
Adipogenesis was quantified using a spectrophotometer. 0.25 mL Dye Extraction Solution (isopropyl alcohol) was added per well, and the plate was set on an orbital shaker or platform rocker for 30 minutes. […]

[4] = test system: 3T3L cells; test: Adiponectin ELISA on supernatant medium of primed 3T3L cells; type: cell-based, mouse; conditions: 10 μg/ml peptide, versus no insulin control
Method: 3T3L cells were cultured in T75 culture flasks, in expansion medium (Millipore Corporation), and stored in a 5% CO2 humidified incubator at 37° C. Media was changed every two days until the cells reached 80% confluency. Cells were subcultured in a 96 well plate with a seeding density of 3×10^4 cells per cm^2.
Once cells had just reached confluency, expansion media was replaced with 0.5 mL of Adipogenic Induction Media per well containing 5% serum that had been screened for an ability to maintain stem cells in an undifferentiated state (LifeTechnologies). Cells were incubated for 48 hours at 37° C., 5% CO2. The Adipogenic Induction Media contained DMEM (low glucose, Gibco) +5% serum (LifeSciences) with 0.5 mM IBMX solution, 1 μM Dexamethasone Solution, and 100 μM Indomethacin Solution (priming stimulus). After 48 hr the Adipogenic Induction media was replaced with new media containing 10 μg/ml insulin alone (positive control), or 10 μg/ml peptide (experimental conditions). Negative controls were DMEM +5% serum only. Plates were incubated for two days prior to adiponectin ELISA analyses. Peptides were added daily at 10 μg/ml throughout the remainder of the experiment.
Adiponectin present in the supernatant medium was measured using a mouse adiponectin ELISA (Novex, LifeTechnologies). Briefly, supernatant medium was collected and diluted 1:100. One hundred microliters of the diluted supernatant medium was added to each well of the ELISA plate and incubated for one hour at 37° C. Wells were washed three times with 1× wash buffer and then 100 μl of antibody was added to each well and incubated for one hour at 37° C. The wells were then washed and incubated with 100 μl detector antibody for 1 hr at 37° C. The wells were washed five times with wash buffer and 100 μl of substrate solution was added to each well and incubated for twenty minutes in the dark. The reaction was then stopped by the addition of 100 μl stop solution. Plates were read at 450 nm and concentrations of adiponectin were derived from a standard curve included in the ELISA plate.
Insulin and the KSEVSK peptide (SEQ ID NO: 7) served as positive controls. […] In FIG. 7, values marked by asterisks represent significant changes relative to the no insulin control (i.e., the negative control) using a two-tailed Student's T test, p<0.05.

[5] = earlier reports, background and U.S. Pat. No. 6,271,344; cited from earlier work
[6] = test system: mesenchymal stem cell; conditions: commercially available mesenchymal stem cell kit; as described in WO 2014/082042; cited from earlier work

KLKDENS (listed as Homo sapiens)
adipogenic activity [1]: did not exhibit adipogenic activity; also recorded: lack adipogenic activity

KLKDENSQ (listed as Homo sapiens)
adipogenesis quantified by Oil Red O staining, fold change relative to the negative control ([2]; peptide 5 μg/ml): significant adipogenic effect | adipogenesis quantified by Oil Red O staining, fold change relative to the negative control ([2]; peptide 50 μg/ml): significant adipogenic effect | adipogenesis quantified by Oil Red O staining, fold change relative to the negative control ([3]; peptide 5 μg/ml): significant adipogenic effect | adipogenesis quantified by Oil Red O staining, fold change relative to the negative control ([3]; peptide 50 μg/ml): significant adipogenic effect | adipogenic activity [1]: are adipogenic

KLQEELNKV (Ovis aries)
adipogenesis quantified by Oil Red O staining, fold change relative to the negative control ([2]; peptide 5 μg/ml): only observed when a concentration of 50 μg/ml was used | adipogenesis quantified by Oil Red O staining, fold change relative to the negative control ([2]; peptide 50 μg/ml): significantly increased adipogenesis | adipogenesis quantified by Oil Red O staining, fold change relative to the negative control ([3]; peptide 5 μg/ml): significantly increased adipogenesis | adipogenesis quantified by Oil Red O staining, fold change relative to the negative control ([3]; peptide 50 μg/ml): significantly increased adipogenesis

KTRSHHI (listed as Monodelphis domestica)
adipogenic activity in Assay 2 [2]: ablated adipogenic activity | adipogenic activity in Assay 1 ([3]; Assay 1, Oil Red O, concentration not given): ablated adipogenic activity

KTRSHHV
adipogenic activity in Assay 2 [2]: not in assay 2 | adipogenesis quantified by Oil Red O staining, fold change relative to the negative control ([3]; peptide 5 μg/ml): significant increase in adipogenesis | adipogenic activity [1]: has adipogenic activity; also recorded: is adipogenic

KTSSHHV (listed as Arabidopsis thaliana)
adipogenic activity in the adiponectin assay (adiponectin secretion) [4]: lack an ability to promote adipogenesis

LKSEVSK (listed as Homo sapiens)
adipogenic activity [1]: also found to be adipogenic

SQLKSEVSK (listed as Homo sapiens)
adipogenic activity [1]: found to be adipogenic

STMMSRSHK
adipogenic activity [1]: found to have adipogenic activity

STMMSRSHKTRSCHH
binding to hyaluronan (HA) [5]: binds to HA

B1: 114 amino acid protein fragment: RHAMM carboxy-terminal sequence from mouse RHAMM produced as a recombinant protein (protein, listed as Mus musculus)
chain: LDAFEAEKQALLNEHGATQEQLNKIRDSYAQLLGHQNLKQKIKHVVKLKDENSQLKSEVSKLRSQLVKRKQNELRLQGELDKALGIRHFDPSKAFCHASKENFTPLKEGNPNCC
adipogenesis [6]: promoted adipogenesis
